Key:
[1] = system: C. albicans strains CAI4 and M70, laboratory-derived isolates with reduced susceptibility; experiment: In vitro caspofungin susceptibility testing, liquid microbroth dilution assay in RPMI-1640 (NCCLS M27-A2); type: cell-based; conditions: Candida albicans; all laboratory-derived isolates (35 from CAI4, 50 from M70) selected on 4 μg/ml caspofungin
Experimental: (§1) Spontaneous mutants of C. albicans strains CAI4 and M70 resistant to caspofungin were isolated by direct selection on solid growth media containing 4 μg/ml (forty times the MIC) caspofungin. The frequency of formation of spontaneous caspofungin-resistant derivatives for both strains was <10^−8 mutants per viable cell. For both strains, the formation of rare shrunken slow-growing colonies on the plates with caspofungin was observed. […] After prolonged incubation for more than 10 days, a small fraction of small shrunken colonies gave rise to smooth fast-growing derivatives which were able to propagate on caspofungin-containing media after reinoculation. Only one such derivative per individual plate/culture was saved and used for further analysis. In total, 35 and 50 isolates with reduced susceptibility to caspofungin were isolated for strains CAI4 and M70, respectively. […] Details of the isolation procedure are set forth in Example 2.
C. albicans strain CAI4 was purchased from ATCC (ATCC, Manassas, Va.). C. albicans strain M70 was from the Merck culture collection (MRL, Rahway, N.J.). Strains were grown on yeast extract-peptone-dextrose (YPD) medium (1% yeast extract, 2% Bacto Peptone, 2% dextrose). For growth of strain CAI4, YPD medium was supplemented by uridine (Sigma-Aldrich, St. Louis, Mo.) at 25 mg/ml. Caspofungin (Merck, Rahway, N.J.) was added directly to YPD at 4 μg/ml. […]

[2] = system: C. albicans strains CAI4 and M70; experiment: Isolation of spontaneous caspofungin-resistant mutants by direct selection on solid media containing caspofungin; type: cell-based, Candida albicans; conditions: both strains CAI4 and M70; YPD plates with 4 μg/ml caspofungin (forty times the MIC)
Experimental: as §1
Spontaneous caspofungin-resistant mutants of C. albicans strains CAI4 and M70 were isolated by plating 100 ul (˜10^8 cells) of an 18 h liquid YPD culture on YPD plates containing 4 μg/ml caspofungin. Serial dilutions of the overnight cultures were plated on the YPD plates without antibiotic selection to precisely determine starting colony counts. Selection plates were incubated for 10-14 days at 30° C. […]

CC[C@H](C)C[C@H](C)CCCCCCCCC(=O)N[C@H]1C[C@@H](O)[C@@H](NCCN)NC(=O)[C@@H]2[C@@H](O)CCN2C(=O)[C@H]([C@H](O)CCN)NC(=O)[C@H]([C@H](O)[C@@H](O)c2ccc(O)cc2)NC(=O)[C@@H]2C[C@@H](O)CN2C(=O)[C@H]([C@@H](C)O)NC1=O [caspofungin]
MIC [1]: > 16 µg/mL
frequency of formation of spontaneous caspofungin-resistant derivatives [2]: < 10^−8 mutants per viable cell
